Results published in paper PMC12655172, “Borylated 5-Membered Ring Iminosugars: Synthesis and Biological Evaluation for Glycosidase Inhibition and Anticancer Properties for Application in Boron Neutron Capture Therapy (BNCT)—Part 2” (Pharmaceuticals, 2025).

Experiments:
[1] = target: T1, β-D-galactosidase (bovine liver) (Bos taurus, UniProt F1MNT6); experiment: Glycosidase inhibition (Table 2 panel); format: biochemical
T1 sequence (F1MNT6 1-469): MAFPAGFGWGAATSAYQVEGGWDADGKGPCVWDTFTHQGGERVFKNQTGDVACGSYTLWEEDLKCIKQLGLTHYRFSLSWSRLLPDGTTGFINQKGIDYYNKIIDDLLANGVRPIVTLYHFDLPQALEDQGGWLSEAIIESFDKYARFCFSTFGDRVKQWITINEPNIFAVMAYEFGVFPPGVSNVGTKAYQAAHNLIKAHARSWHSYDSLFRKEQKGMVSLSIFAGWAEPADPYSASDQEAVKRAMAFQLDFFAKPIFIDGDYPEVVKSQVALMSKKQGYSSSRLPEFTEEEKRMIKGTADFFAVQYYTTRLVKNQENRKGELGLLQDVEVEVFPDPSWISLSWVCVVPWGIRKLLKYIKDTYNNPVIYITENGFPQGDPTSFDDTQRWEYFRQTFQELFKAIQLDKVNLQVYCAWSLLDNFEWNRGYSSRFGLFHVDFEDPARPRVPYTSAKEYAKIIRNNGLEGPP
Outline: (§1)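 pNP-glycoside substrate […], optimum pH per enzyme, […]; quench Na2CO3 […]; A400 for liberated p-nitrophenol.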

[2] = system: T2, α-L-fucosidase (bovine kidney); experiment: Glycosidase inhibition (Table 2 panel); format: biochemical
T2 construct: purchased Sigma-Aldrich; host or cells: bovine kidney
Outline: as §1

[3] = system: A2780 (ovarian carcinoma); experiment: Cancer screening, MTT growth inhibition; format: cell-based; conditions: for inhibition at 25 µM / GI50: Homo sapiens; for inhibition at 25 µM: A2780, 25 µM of drug, read-out: DOSE SCREEN percentage (%) cell growth inhibition A2780 Ovarian; for inhibition at 25 µM / DOSE SCREEN percentage (%) cell growth inhibition A2780 Ovarian: 72 h; for DOSE SCREEN percentage (%) cell growth inhibition A2780 Ovarian: 25 µM of drug; for GI50: A2780, 72 h, read-out: DOSE RESPONSE GI50 A2780 Ovarian
Description: (§2) For Table 4, all test agents were prepared as stock solutions ([…]) in dimethyl sulfoxide (DMSO) and stored at −20 °C. Cell lines used in the study included HT29 (colorectal carcinoma), A2780 (ovarian carcinoma), H460 (lung carcinoma), A431 (skin carcinoma), MiaPaCa-2 (pancreatic carcinoma), and SMA560 (spontaneous murine astrocytoma), together with MCF10A (non-tumour derived normal breast cell line). Cell line sources: the HT29, H460, and MiaPaCa-2, together with MCF10A were purchased from ATCC. The A2780 and A431 were purchased from the European Collection of Cell Culture (ECACC). All cell lines were incubated in a humidified atmosphere 5% CO2 at 37 °C. The cancer cell lines were maintained in Dulbecco’s modified Eagle’s medium (DMEM; Sigma, Truganina, Australia) supplemented with foetal bovine serum (10%), sodium pyruvate ([…]), penicillin (100 IUmL^−1), streptomycin (100 µg mL^−1), and L-glutamine ([…]).
(§3) Growth inhibition was determined by plating cells in duplicate in medium (100 µL) at a density of 2500–4000 cells per well in 96-well plates. On day 0 (24 h after plating), when the cells are in logarithmic growth, medium (100 µL) with or without the test agent was added to each well. […] Each data point is the mean ± the standard error of the mean (SEM) calculated from three replicates which were performed on separate occasions and separate cell line passages.

H460 (lung carcinoma) = experiment: Cancer screening, MTT growth inhibition; format: cell-based; conditions: for inhibition at 25 µM / GI50: Homo sapiens; for inhibition at 25 µM: NCI-H460, 25 µM of drug, read-out: DOSE SCREEN percentage (%) cell growth inhibition H460 Lung; for inhibition at 25 µM / DOSE SCREEN percentage (%) cell growth inhibition H460 Lung: 72 h; for DOSE SCREEN percentage (%) cell growth inhibition H460 Lung: 25 µM of drug; for GI50: NCI-H460, 72 h, read-out: DOSE RESPONSE GI50 H460 Lung
Description: as §2, §3

[4] = system: MIA-Pa-Ca2 (pancreatic carcinoma); experiment: Cancer screening, MTT growth inhibition; format: cell-based; conditions: for inhibition at 25 µM / GI50: Homo sapiens; for inhibition at 25 µM: MIA PaCa-2, 25 µM of drug, read-out: DOSE SCREEN percentage (%) cell growth inhibition MIA-Pa-Ca2 Pancreatic; for inhibition at 25 µM / DOSE SCREEN percentage (%) cell growth inhibition MIA-Pa-Ca2 Pancreatic: 72 h; for DOSE SCREEN percentage (%) cell growth inhibition MIA-Pa-Ca2 Pancreatic: 25 µM of drug; for GI50: MIA PaCa-2, 72 h, read-out: DOSE RESPONSE GI50 MIA-Pa-Ca2 Pancreatic
Description: as §2, §3

A431 (skin carcinoma) = experiment: Cancer screening, MTT growth inhibition; format: cell-based; conditions: for inhibition at 25 µM / GI50: Homo sapiens; for inhibition at 25 µM: A-431, 25 µM of drug, read-out: DOSE SCREEN percentage (%) cell growth inhibition A431 Skin; for inhibition at 25 µM / DOSE SCREEN percentage (%) cell growth inhibition A431 Skin: 72 h; for DOSE SCREEN percentage (%) cell growth inhibition A431 Skin: 25 µM of drug; for GI50: A-431, 72 h, read-out: DOSE RESPONSE GI50 A431 Skin
Description: as §2, §3

[5] = system: HT29 (colorectal carcinoma); experiment: Cancer screening, MTT growth inhibition; format: cell-based; conditions: for inhibition at 25 µM / GI50: Homo sapiens; for inhibition at 25 µM: HT-29, 25 µM of drug, read-out: DOSE SCREEN percentage (%) cell growth inhibition HT29 Colon; for inhibition at 25 µM / DOSE SCREEN percentage (%) cell growth inhibition HT29 Colon: 72 h; for DOSE SCREEN percentage (%) cell growth inhibition HT29 Colon: 25 µM of drug; for GI50: HT-29, 72 h, read-out: DOSE RESPONSE GI50 HT29 Colon
Description: as §2, §3

[6] = system: β-D-glucuronidase (bovine liver); experiment: Glycosidase inhibition (Table 3 panel); format: biochemical; conditions: 1 mg/mL aqueous solution; run in water
Description: (§4) All enzymes and para-nitrophenyl substrates were purchased from Sigma. Enzymes were assayed at 27 °C in citric acid (0.1 M)/disodium hydrogen phosphate (0.2 M) buffers at the optimum pH for the enzyme. The incubation mixture consisted of […] of 1 mg/mL aqueous solution of extract and […] of the appropriate […] para-nitrophenyl substrate made up in buffer at the optimum pH for the enzyme. The reactions were stopped by addition of […] 0.4 M glycine (pH 10.4) during the exponential phase of the reaction, which had been determined at the beginning using uninhibited assays in which water replaced the inhibitor. Final absorbances were read at 405 nm using a Versamax microplate reader (Molecular Devices, Wokingham, UK). Assays were carried out in triplicate, and the values given are means of the three replicates per assay. All reactions were run in water.

β-D-glucosidase (almond) = experiment: Glycosidase inhibition (Table 3 panel); format: biochemical; conditions: 1 mg/mL aqueous solution; run in water
Description: as §4

[7] = system: α-D-glucosidase (human lysosome); experiment: Glycosidase inhibition (Table 2 panel); format: biochemical; conditions: at 100 μM
[8] = system: β-D-glucanase (T. Longibrachiatum); experiment: Glycosidase inhibition (Table 2 panel); format: biochemical; conditions: at 100 μM
[9] = system: β-D-galactosidase (E. coli); experiment: Glycosidase inhibition (Table 2 panel); format: biochemical; conditions: at 100 μM

Row | Compound | inhibition at 100 µM ([1]; at 100 μM) | inhibition at 25 µM [3] | inhibition at 25 µM (H460 (lung carcinoma)) | inhibition at 25 µM [4] | inhibition at 25 µM (A431 (skin carcinoma)) | inhibition at 25 µM [5] | Percentage inhibition β-D-Glucuronidase Bovine Liver [6] | Percentage inhibition β-D-Glucosidase Almond (β-D-glucosidase (almond)) | inhibition % α-D-Glucosidase Human Lysosome [7] | inhibition % α-L-Fucosidase Bovine Kidney ([2]; at 1000 μM) | GI50 [3] | GI50 (H460 (lung carcinoma)) | GI50 [4] | GI50 (A431 (skin carcinoma)) | GI50 [5] | inhibition % β-D-Glucanase T. Longibrachiatum [8] | inhibition % β-D-Galactosidase E. coli [9] | further results
1 | N[C@@H](Cc1ccc(B(O)O)cc1)C(=O)O [BPA, 4-borono-L-phenylalanine, reference compound] | 10.9% | 4% | 7% | 3% | 4% | 14% | −0.7% | 3.9% | – | – | – | – | – | – | – | – | – | inhibition % α-L-Fucosidase Bovine Kidney ([2]; at 100 μM): ^cNI ^d(0%)
2 | N[C@@H](Cc1ccc(B(O)O)cc1)C(=O)O [^10B-BPA, reference compound] | – | – | – | – | – | – | −1% | 3% | – | – | – | – | – | – | – | – | – | inhibition % β-D-Galactosidase Bovine Liver ([1]; at 100 μM): ^cNI ^d(0%); inhibition % α-L-Fucosidase Bovine Kidney ([2]; at 100 μM): ^cNI ^d(0%); DOSE SCREEN percentage (%) cell growth inhibition A2780 Ovarian [3]: * 8 ± 4%; DOSE SCREEN percentage (%) cell growth inhibition H460 Lung (H460 (lung carcinoma)): * 8 ± 5%; DOSE SCREEN percentage (%) cell growth inhibition MIA-Pa-Ca2 Pancreatic [4]: * 11 ± 3%; DOSE SCREEN percentage (%) cell growth inhibition A431 Skin (A431 (skin carcinoma)): * 4 ± 4%; DOSE SCREEN percentage (%) cell growth inhibition HT29 Colon [5]: * 15 ± 4%
3 | CC1(C)O[C@H]2O[C@H]3[C@@H]([C@H]2O1)N(Cc1cccc(B2OC(C)(C)C(C)(C)O2)c1)C[C@H]3O [meta 2, N-(3-Methylphenylboronic acid pinacol ester)-3,6-dideoxy-3,6-imino-1,2-O-isopropylidene-α-D-gulofuranose] | 2.2% | 25 ± 2% | 5 ± 2% | 19 ± 8% | 8 ± 6% | 1 ± 10% | 9.9% | 13.2% | ^cNI ^d(3.9%) | ^aNI ^b(3.8%) | > 50 µM | > 50 µM | > 50 µM | > 50 µM | > 50 µM | ^cNI ^d(3.9%) | ^cNI ^d(0%) | inhibition at 1000 µM ([1]; at 1000 μM): 41.8%
4 | OB(O)c1cccc(CN2C[C@@H](O)[C@H]3OC(O)[C@H](O)[C@H]32)c1 (stereo partly drawn) [meta 3, N-(3-Methylphenylboronic acid)-3,6-dideoxy-3,6-imino-D-gulofuranose] | – | 18 ± 1% | 2 ± 2% | 17 ± 4% | 3% | < 0% | 13.3% | 61.7% | ^cNI ^d(3.5%) | ^aNI ^b(3.8%) | > 50 µM | > 50 µM | > 50 µM | > 50 µM | > 50 µM | ^cNI ^d(0%) | ^cNI ^d(0.2%) | –
5 | CC1(C)O[C@H]2O[C@H]3[C@@H]([C@H]2O1)N(Cc1cccc(B(O)O)c1)C[C@H]3O [meta 5, N-(3-Methylphenylboronic acid)-3,6-dideoxy-3,6-imino-1,2-O-isopropylidene-α-D-glucofuranose] | 0% | 32 ± 7% | 10 ± 2% | 16 ± 1% | 8 ± 8% | < 0% | −0.9% | 7.7% | ^cNI ^d(0.3%) | – | > 50 µM | > 50 µM | > 50 µM | > 50 µM | > 50 µM | ^cNI ^d(0%) | ^cNI ^d(0%) | –
6 | CC1(C)O[C@H]2O[C@H]3[C@@H]([C@H]2O1)N(Cc1cccc(O)c1)C[C@H]3O [meta 6] | 15.5% | 23 ± 6% | 6 ± 3% | 12 ± 4% | 4 ± 9% | 4 ± 3% | 3.6% | 0.7% | ^cNI ^d(3.3%) | – | > 50 µM | > 50 µM | > 50 µM | > 50 µM | > 50 µM | ^cNI ^d(3.1%) | ^cNI ^d(0.8%) | –
7 | OB(O)c1ccccc1CN1C[C@@H](O)[C@H]2OC(O)[C@H](O)[C@H]21 (stereo partly drawn) [ortho 3, N-(2-Methylphenylboronic acid)-3,6-dideoxy-3,6-imino-D-gulofuranose] | – | 17 ± 2% | 2 ± 1% | 5 ± 5% | 3 ± 1% | < 0% | 1.3% | 68.6% | ^cNI ^d(0.3%) | ^aNI ^b(2.1%) | > 50 µM | > 50 µM | > 50 µM | > 50 µM | > 50 µM | ^cNI ^d(0%) | ^cNI ^d(4.4%) | –
8 | CC1(C)O[C@H]2O[C@H]3[C@@H]([C@H]2O1)N(Cc1ccccc1B(O)O)C[C@H]3O [ortho 5] | 6.1% | 19 ± 2% | 2 ± 2% | 12 ± 3% | 9 ± 4% | 4 ± 4% | 1.4% | 8.7% | ^cNI ^d(0%) | – | > 50 µM | > 50 µM | > 50 µM | > 50 µM | > 50 µM | ^cNI ^d(5.2%) | ^cNI ^d(0%) | –
9 | Borocaptate sodium [BSH, reference compound] | – | – | – | – | – | – | 31.6% | 47.3% | – | ^aNI ^b(0%) | – | – | – | – | – | – | – | inhibition % β-D-Galactosidase Bovine Liver ([1]; at 1000 μM): ^aNI ^b(0%); DOSE SCREEN percentage (%) cell growth inhibition A2780 Ovarian [3]: * 2 ± 5%; DOSE SCREEN percentage (%) cell growth inhibition H460 Lung (H460 (lung carcinoma)): * 8 ± 2%; DOSE SCREEN percentage (%) cell growth inhibition MIA-Pa-Ca2 Pancreatic [4]: * 2 ± 6%; DOSE SCREEN percentage (%) cell growth inhibition A431 Skin (A431 (skin carcinoma)): * <0%; DOSE SCREEN percentage (%) cell growth inhibition HT29 Colon [5]: * 3 ± 2%
